Laboratory results taken from a compilation of properties of binary mixtures (doi:10.1007/s10953-014-0283-z).

Experiment: xn = mol fraction of the nth substance listed
Conditions: 100 kPa

CC[NH3+].O=[N+]([O-])[O-] + O
viscosity [mPa·s]
Conditions	x2 = 0	x2 = 0.1088	x2 = 0.2597	x2 = 0.3682	x2 = 0.47	x2 = 0.579	x2 = 0.6776	x2 = 0.7889	x2 = 0.8895	x2 = 0.9499
293.15 K	40.61	–	9.91	–	–	–	3.6	2.4	1.64	1.36
298.15 K	34.49	18.13	8.77	6.77	5.61	4.46	3.22	–	–	1.22
303.15 K	29.65	–	–	6.06	5.04	4	2.9	–	–	1.1
308.15 K	25.76	–	6.9	5.41	–	3.61	2.62	1.78	1.22	1
313.15 K	–	12.2	6.2	4.89	4.08	–	2.38	1.62	1.12	0.92
318.15 K	20.12	10.87	5.59	4.43	–	2.97	2.17	–	1.03	0.84

O + CC[NH3+].O=[N+]([O-])[O-]
x1 = 1
Conditions	viscosity [mPa·s]
293.15 K	0.99
298.15 K	0.89
303.15 K	0.81
308.15 K	0.74
318.15 K	0.6
